Test results taken from ChEMBL document CHEMBL2073928, “Overlapping substrate specificities and tissue distribution of cytochrome P450 3A and P-glycoprotein: implications for drug delivery and activity in cancer chemotherapy” (Mol Carcinog, 1995).

Tests used:
Assay type in all cases: functional, organism-based
[1] = target: ATP-dependent translocase ABCB1 (Rattus norvegicus, UniProt P43245); test: (§1) TP_TRANSPORTER: RT-PCR in vivo Wistar rat, liver
[2] = target: Multidrug resistance protein 1a (Rattus norvegicus) (UniProt Q6PSM0); test: TP_TRANSPORTER: Western in vivo Wistar rat, liver
Multidrug resistance protein 1a (Rattus norvegicus), sequence (Q6PSM0 as listed by the source): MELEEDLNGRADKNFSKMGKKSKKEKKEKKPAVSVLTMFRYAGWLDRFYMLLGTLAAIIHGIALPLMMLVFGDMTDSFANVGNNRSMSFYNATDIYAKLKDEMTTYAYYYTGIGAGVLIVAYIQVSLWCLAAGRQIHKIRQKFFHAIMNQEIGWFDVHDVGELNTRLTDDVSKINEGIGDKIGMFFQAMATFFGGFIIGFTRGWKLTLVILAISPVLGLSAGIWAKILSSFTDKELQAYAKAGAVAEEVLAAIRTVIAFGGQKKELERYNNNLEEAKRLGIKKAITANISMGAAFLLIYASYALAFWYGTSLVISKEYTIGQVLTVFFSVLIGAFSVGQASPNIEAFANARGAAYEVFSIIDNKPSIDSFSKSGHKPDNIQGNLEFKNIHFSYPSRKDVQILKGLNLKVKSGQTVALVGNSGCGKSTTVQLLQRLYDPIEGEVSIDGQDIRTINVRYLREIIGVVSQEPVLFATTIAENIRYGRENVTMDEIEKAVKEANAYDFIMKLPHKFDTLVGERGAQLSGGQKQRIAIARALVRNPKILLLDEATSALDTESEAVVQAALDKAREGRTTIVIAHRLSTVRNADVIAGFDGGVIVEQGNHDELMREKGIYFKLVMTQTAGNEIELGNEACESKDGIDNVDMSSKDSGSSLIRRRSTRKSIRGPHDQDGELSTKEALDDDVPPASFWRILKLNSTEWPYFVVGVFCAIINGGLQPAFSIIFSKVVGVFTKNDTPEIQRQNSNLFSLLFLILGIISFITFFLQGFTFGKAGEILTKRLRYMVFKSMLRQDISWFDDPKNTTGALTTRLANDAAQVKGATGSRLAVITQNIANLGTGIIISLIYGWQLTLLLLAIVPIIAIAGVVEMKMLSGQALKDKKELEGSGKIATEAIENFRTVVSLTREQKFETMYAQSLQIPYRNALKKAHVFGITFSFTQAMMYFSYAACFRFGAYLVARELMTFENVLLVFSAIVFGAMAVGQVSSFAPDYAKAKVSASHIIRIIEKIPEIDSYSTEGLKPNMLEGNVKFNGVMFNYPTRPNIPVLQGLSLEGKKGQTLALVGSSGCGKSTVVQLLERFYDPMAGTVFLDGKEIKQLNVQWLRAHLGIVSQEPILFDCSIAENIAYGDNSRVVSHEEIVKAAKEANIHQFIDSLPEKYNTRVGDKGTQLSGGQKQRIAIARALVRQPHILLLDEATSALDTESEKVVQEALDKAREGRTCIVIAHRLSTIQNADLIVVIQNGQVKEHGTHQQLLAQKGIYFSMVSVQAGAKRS

[3] = target: Multidrug resistance protein 1a (Rattus norvegicus) (UniProt Q6PSM0); test: as §1

ATP-dependent translocase ABCB1, sequence (P43245 whole entry): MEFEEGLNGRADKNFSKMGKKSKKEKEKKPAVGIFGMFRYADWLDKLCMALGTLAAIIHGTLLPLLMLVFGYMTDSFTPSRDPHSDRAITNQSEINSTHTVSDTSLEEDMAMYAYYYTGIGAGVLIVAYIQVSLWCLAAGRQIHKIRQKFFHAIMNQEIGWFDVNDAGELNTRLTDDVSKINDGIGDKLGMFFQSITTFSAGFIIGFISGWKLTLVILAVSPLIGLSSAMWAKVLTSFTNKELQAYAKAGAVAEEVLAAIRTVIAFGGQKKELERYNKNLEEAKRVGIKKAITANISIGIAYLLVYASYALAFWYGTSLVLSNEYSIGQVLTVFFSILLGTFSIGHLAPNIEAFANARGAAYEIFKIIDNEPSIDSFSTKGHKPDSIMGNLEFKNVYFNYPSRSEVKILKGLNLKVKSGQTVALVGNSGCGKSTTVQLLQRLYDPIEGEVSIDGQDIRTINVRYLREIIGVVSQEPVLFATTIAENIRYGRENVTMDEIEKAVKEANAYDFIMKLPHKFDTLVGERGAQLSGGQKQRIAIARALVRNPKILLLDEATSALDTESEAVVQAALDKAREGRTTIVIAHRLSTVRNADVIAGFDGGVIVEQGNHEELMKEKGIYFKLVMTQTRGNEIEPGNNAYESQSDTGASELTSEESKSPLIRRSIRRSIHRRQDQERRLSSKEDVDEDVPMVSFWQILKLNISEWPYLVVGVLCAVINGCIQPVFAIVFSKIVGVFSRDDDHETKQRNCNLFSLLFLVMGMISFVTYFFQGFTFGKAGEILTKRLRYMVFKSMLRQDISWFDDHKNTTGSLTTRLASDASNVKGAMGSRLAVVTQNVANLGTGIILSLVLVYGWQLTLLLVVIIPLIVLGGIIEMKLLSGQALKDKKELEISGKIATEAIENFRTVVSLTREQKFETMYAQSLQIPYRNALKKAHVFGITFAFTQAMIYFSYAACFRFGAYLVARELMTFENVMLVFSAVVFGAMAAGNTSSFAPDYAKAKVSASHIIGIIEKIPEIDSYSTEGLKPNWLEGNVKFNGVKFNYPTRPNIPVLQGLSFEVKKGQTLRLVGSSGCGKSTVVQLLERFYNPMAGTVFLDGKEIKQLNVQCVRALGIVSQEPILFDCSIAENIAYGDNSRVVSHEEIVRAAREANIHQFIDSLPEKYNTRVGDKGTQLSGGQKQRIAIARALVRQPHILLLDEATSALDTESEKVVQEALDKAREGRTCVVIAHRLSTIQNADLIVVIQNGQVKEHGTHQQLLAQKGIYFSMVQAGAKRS

With CC(=O)Nc1ccc2c(c1)Cc1ccccc1-2 [2-ACETYLAMINOFLUORENE] the Activity [1] was “inducer [+]”, the Activity [2] was “inducer [+]” and the Activity [3] was “inducer [+]”.
